# Tested on: human articular cartilage
# Experiment: Human articular cartilage assay: IL-1α-induced proteoglycan loss from osteoarthritic cartilage
# Assay type: cell-based
# Details: for % Proteoglycan Release: 30 μM, with IL-1α, mean ± SE
# Excerpt: Human articular cartilage was obtained from St. Joseph Hospital in Ypsilanti, Mich.; cell culture reagents from Gibco (Grand Island, N.Y.); human recombinant Interleukin-1α (IL1α) from Genzyme (Cambridge, Mass.); DMB from Polysciences (Warrington, Pa.); Falcon 24 well flat-bottom tissue culture plates from Becton Dickinson (Lincoln Park, N.Y.); Papain from Sigma (P-3125, St. Louis, Mo.); high purity dimethyl sulfoxide from Burdic & Jackson (081-1, Distributed by Baxter Healthcare, McGraw Park, Ill.); Sarstedt vials for 96-vial aluminum racks (Sarstedt, Newton, N.C.); Cetus Pro/Pette (Perkin Elmer, Norwalk, Conn.); Biomek 1000 (Beckman, Fullerton, Calif.)
# The assay was performed in two phases. The cartilage pieces were first incubated with IL-1α in the presence of compound. The amount of proteoglycan released was then quantified by measuring chondroitin sulfate present in the media using the 1,9-Dimethylmethylene Blue Assay (DMB).
# The articular cartilage used in this study was obtained from osteoarthritis patients undergoing total knee or hip replacment surgery. The ages of the patients ranged from 50 to 70 years. To establish cartilage organ cultures, uniform cartilage slices measuring 11 mm×11 mm were dissected from the underlying bone using a #20 scalpel blade and placed in isotonic saline. The cartilage slices were washed in Gey's balanced salt solution and placed (one piece/well) in Falcon 24 well flat-bottom tissue culture plates (Becton Dickinson, Lincoln Park, N.J.). The cartilage organ cultures were maintained in complete Ham's F-12 (supplemented with 10% fetal calf serum, 6.5 mg/mL Hepes, 58.5 μg/mL glutamine, 200 μg/mL MgSO4, 100 units/mL Pencillin G sodium, 100 μg/mL streptomycin sulfate, and 0.25 μg/mL amphotericin B) at 37° C. in a humidified atmosphere of 95% air and 5% CO2. The cartilage cultures were allowed to equilibrate in this medium for 4 to 5 days. Just before starting the experiment, the serum-containing spent medium was removed and cartilage cultures rinsed with 1 mL F-12 Nutrient Mixture (without phenol red) in order to remove residual FCS. Each treatment group was done in triplicate. […] All the media removed from cultures was collected and analyzed using the 1,9 DMB assay. At the end of experimental period, cartilage pieces were digested with papain and analysed using the 1,9 DMB assay.
# The ability of a compound to inhibit proteoglycan release from cartilage pieces was quantified by measuring chondroitin sulfate. […] This color change was measured using a Titertek Multiscan MCC 340 plate reader at 540 nm. […] It was necessary to dilute (1:5, 1:10) the medium before a DMB assay was performed by adding 10 μL of collected media to 290 μL DMB (16 mg dye/L of 0.1 M formate buffer, pH 3.5, containing 5 mL ethanol) and reading at 540 nm. […]
smiles,measurement,setting,value
"S=c1[nH]nc(-c2ccccc2Nc2ccccc2)o1 [Compound 1, 5-(2-Phenylamino-phenyl)-3H-[1,3,4]oxadiazole-2-thione]",% Proteoglycan Release,"48 hours, n = 3 (control 3.7, IL-1α 9.0)",4.0 ± 0.2%
same,% Proteoglycan Release,"96 hours, n = 3 (control 5.7, IL-1α 14.4)",7.4 ± 0.4%
same,% Proteoglycan Release,"144 hours, n = 3 (control 7.0, IL-1α 16.9)",10.0 ± 0.8%
same,inhibition at 30 µM,"over the course of the experiment, human osteoarthritic cartilage",> 70%
